Data as given in US4200650A, “2-Amino-cyclopent-1-ene-1-thiocarboxylic acid-disulfides to treat noradrenergic malfunctions” (Richter Gedeon Vegyeszeti Gyar Rt., priority 1976, dated 1980).

How the values were obtained:
dopamine-β-hydroxylase [1] = test: Determination of noradrenaline and dopamine levels of brain (dopamine-β-hydroxylase inhibiting effect); assay type: in vivo, male Wistar rats; conditions: i.p.
Experimental: (§1) The dopamine-β-hydroxylase inhibiting effects of the new compounds according to the invention were examined by the following tests:
(§2) The tests were performed on male Wistar rats weighing 150 to 200 g. The dopamine-β-hydroxylase inhibiting effects of the compounds were evaluated by determining the change of noradrenaline, dopamine and adrenaline levels of the cerebrum, heart, spleen and adrenal gland. The serotonine and 5-hydroxy-indolylacetic acid levels of the cerebrum were also determined. The measurements were performed as follows:
(§3) The animals were decapitated, the cerebrum, heart, spleen and adrenal gland were removed quickly, and the organs were frozen by placing them onto a metal sheet cooled with dry ice. The frozen organs were stored for maximum one night at -20° C.
(§4) Determination of the noradrenaline, dopamine, serotonine and 5-hydroxy-indolylacetic acid contents of brain
The brains were homogenized in 10 parts by volume of 0.4 n perchloric acid. The homogenized mixture was stored at -20° C. overnight, thereafter it was thawed and centrifuged as described above. A sample of the homogenized mixture corresponding to 0.5 g of brain was removed, the pH of the sample was adjusted to 8.0±0.1 with 0.1 molar tris-buffer of the above composition, and the sample was processed as described above for the determination of the noradrenaline content of heart and spleen, with the difference that 1.5 ml of 0.05 n perchloric acid were applied as eluting agent. 0.5 ml of the eluate were applied to determine the noradrenaline and dopamine contents. The measurement was performed as described above, with the difference that samples of 0.5 ml were applied for the recording of the fluorescency of noradrenaline. The residua was placed for 50 minutes into a drying oven heated to 100° C., thereafter the sample was cooled with ice water, and the fluorescency of dopamine was recorded at wavelengths of 325 nm (excitation) and 380 nm (emission).
(§5) In a further test series the serotonine and 5-hydroxy-indolylacetic acid contents were also determined, beside the determination of the noradrenaline and dopamine content, from the same sample. In this instance the brains were homogenized in 10 ml of 75% ethanol, 0.2 ml of EDTA-Na2 and 5% of ascorbic acid were added to the homogenized mixtures, and the homogenized mixtures were maintained at -20° C. overnight. The mixtures were centrifuged as described above, and 5.0 ml samples of the supernatant were removed. The samples were diluted with equal volumes of distilled water, and poured onto ion exchange columns of 0.5×1.5 cm dimensions, filled with buffered Amberlite CG-30 (200 to 400 mesh). The columns were washed with 5 ml of distilled water followed by 1.0 ml of 0.2 n hydrochloric acid, and the first effluent and the aqueous wash were collected for the determination of 5-hydroxy-indolylacetic acid. Elution was continued with further 1.2 ml of 0.2 n hydrochloric acid in order to remove noradrenaline, dopamine and serotonine. Samples of 0.3 ml were used for the determinations.
(§6) Noradrenaline and dopamine were determined by the method of Shellenberger, modified as described above, whereas serotonine was determined by the method of Curzon et al. (Brit. J. Pharmacol. 39, 653/1970/). The basic method was modified as follows: A 0.5% solution of ortho-phthal(di)aldehyde in absolute ethanol was diluted with 10 n hydrochloric acid to 50-fold of its original volume, and 0.6 ml of the resulting 0.01% ortho-phthal(di)aldehyde solution were added immediately to 0.5 ml of the serotonine-containing sample. The sample was placed into a hot water bath for 10 minutes, thereafter cooled with tap water, and the fluorescency was recorded at wavelengths of 360 nm (excitation) and 490 nm (emission).
In the tests disulfiram, 2,2-dipyridyl, bis(1-methyl-4-homopiperazinyl-thriocaronyl)-disulfide, sodium diethyldithiocarbamate and N-phenyl-N'-(2-thiazolyl)-thiourea were applied as reference substances. […]

dopamine-β-hydroxylase [2] = test: Determination of the adrenaline content of adrenal gland; assay type: in vivo, male Wistar rats; conditions: i.p.
Experimental: as §1, §2, §3
Determination of the adrenaline content of adrenal gland
The adrenal glands were freed from fat and homogenized in 3.0 ml of ice-cold 0.4 n perchloric acid. The homogenized mixtures were centrifuged for 10 minutes at 0° C. with a speed of 3200 r.p.m. using a Janetzky K-70 type centrifuge. 0.05 ml samples were taken from the supernatant, and the adrenaline level was determined directly by the method of Laverty et al. (Anal. Biochem. 22, 269/1968/).
(§7) In the tests disulfiram, 2,2-dipyridyl, bis(1-methyl-4-homopiperazinyl-thriocaronyl)-disulfide, sodium diethyldithiocarbamate and N-phenyl-N'-(2-thiazolyl)-thiourea were applied as reference substances. The values indicated in Table 1 are the percentages in relation to the amine levels of the controls measured in the same tests (± standard error). The statistical calculations were performed on a TPA/i type computer, using Student's t test.

dopamine-β-hydroxylase [3] = test: Determination of the noradrenaline content of spleen; assay type: in vivo, male Wistar rats; conditions: i.p.
Experimental: as §1, §2, §3
(§8) Determination of the noradrenaline content of heart and spleen
(§9) The organs were weighed in frozen state and then homogenized in 5.0 ml of 0.4 n perchloric acid containing 0.05% of EDTA-Naa and 0.1% of Na2 S2 O5. The homogenized mixtures were centrifuged as described above for the treatment of adrenal gland, the supernatants were decanted, and the pH was adjusted to 8.0±0.1 with a 0.1 molar tris buffer containing 20 g/l of NaOH and 25 g/l of EDTA-Na2. 100 mg of prepared Al2 O3 (Anton et al.: J. Pharm. Ther. 138, 360/1962/) were added to the samples, and the mixtures were shaken mechanically for 20 minutes. Thereafter Al2 O3 was washed with 2×10 ml of distilled water, and noradrenaline was eluted with 1.0 ml of 0.05 n perchloric acid. 0.5 ml samples of the eluate were applied for the determination of noradrenaline. Noradrenaline was determined according to the method of Shellenberger et al. (Anal. Biochem. 39, 356/1971/), with the following modifications of the basic procedure: 0.5 ml of 0.1 molar Na-K-phosphate buffer, containing 9 g/l of EDTA-Na2, were added to 0.5 ml of the eluate, and the catecholamines (noradrenaline in the examination of heart and spleen and noradrenaline and dopamine in the examination of the cerebrum) were oxidized with 0.1 ml of a 0.1 n iodine solution in 5% potassium iodide. After exactly 2 minutes oxidation was stopped by adding 0.25 ml of a 2.5% sodium sulfite solution in 4.4 n aqueous sodium hydroxide to the mixture. 2 minutes after the introduction of the alkaline sulfite solution 0.2 ml of concentrated acetic acid were added to the samples, upon which the pH decreased to 4.4 to 4.5 Thereafter the samples were placed for 5 minutes into a drying oven heated to 100° C., and then the samples were cooled with ice water. The fluorescency of noradrenaline was measured with an OPTON spectrophotometer at wavelengths of 380 nm (excitation) and 490 nm (emission).
as §7

dopamine-β-hydroxylase [4] = test: Determination of the noradrenaline content of heart; assay type: in vivo, male Wistar rats; conditions: i.p.
Experimental: as §1, §2, §3, §8, §9, §7

dopamine-β-hydroxylase [5] = conditions: literature, cited from earlier work
[6] = system: serotonine and 5-hydroxy-indolylacetic acid levels of the cerebrum; test: Determination of serotonine and 5-hydroxy-indolylacetic acid levels of brain; assay type: in vivo, male Wistar rats
Experimental: as §2, §3, §4, §5, §6
5-Hydroxy-indolylacetic acid was determined from the mixture of the first effluent and the aqueous wash. 10 ml of distilled water and 0.2 ml of concentrated hydrochloric acid were added to the mixture, and the sample was poured onto a 0.8×4.0 cm column filled with Sephadex G-10. The column was washed with 15 ml of 0.1 n hydrochloric acid followed by 1.8 to 2.0 ml of 0.02 n aqueous ammonia, and then 5-hydroxyindolylacetic acid was eluted with further 2.0 ml of aqueous ammonia. 0.5 ml samples were used in the measurements, and the determination was performed according to the method of Korf et al. (Biochem. Pharmacol. 20, 659/1971/).
as §7

[7] = 100 mg/kg, 4 hours, ± standard error
[8] = 200 mg/kg, 4 hours, ± standard error
[9] = 200 mg/kg, 8 hours, ± standard error
[10] = i.p., 200 mg/kg, 4 hours, ± standard error

In the case of c1ccc(-c2ccccn2)nc1 [2,2-D, 2,2-dipyridyl, reference compound], the “Brain DA (dopamine) level, percentages in relation to the controls” value (“Brain DA (dopamine) level, percentages” below) (dopamine-β-hydroxylase [1]; 37.5 mg/kg, 4 hours) is reported as 116%, the “Brain NA (noradrenaline) level, percentages in relation to the controls” value (dopamine-β-hydroxylase [1]; 37.5 mg/kg, 4 hours) is reported as 79.5% and the “Brain DA (dopamine) level, percentages” value (dopamine-β-hydroxylase [1]; 75 mg/kg, 4 hours) is reported as 95%. For the same compound, the “Brain NA (noradrenaline) level, percentages in relation to the controls” value (dopamine-β-hydroxylase [1]; 75 mg/kg, 4 hours) was 41.2%, the “Adrenal gland AD (adrenaline) level, percentages in relation to the controls” value (dopamine-β-hydroxylase [2]; 37.5 mg/kg, 4 hours) was 80% and the “Adrenal gland AD (adrenaline) level, percentages in relation to the controls” value (dopamine-β-hydroxylase [2]; 75 mg/kg, 4 hours) was 63%. The “Spleen NA (noradrenaline) level, percentages in relation to the controls” value (dopamine-β-hydroxylase [3]; 37.5 mg/kg, 4 hours) was 100%, the “Heart NA (noradrenaline) level, percentages in relation to the controls” value (dopamine-β-hydroxylase [4]; 37.5 mg/kg, 4 hours) was 104% and the “Heart NA (noradrenaline) level, percentages in relation to the controls” value (dopamine-β-hydroxylase [4]; 75 mg/kg, 4 hours) was 58%. For the same compound, the “dopamine-β-hydroxylase inhibition under in vitro conditions, in words” value (dopamine-β-hydroxylase [5]; in vitro) was “effective under in vitro conditions” and the “Brain SE (serotonine) level, percentages in relation to the controls” value (“Brain SE (serotonine) level, percentages” for short) ([6]; i.p., 75 mg/kg, 4 hours) was 100%.
In the case of CCCCNC1=C(C(=S)SSC(=S)C2=C(NCCCC)CCC2)CCC1 [Compound M-2, 2-(N-butyl)-amino-cyclopent-1-ene-thiocarboxylic aciddisulfide], the “Brain DA (dopamine) level, percentages” value (dopamine-β-hydroxylase [1]; [7]) is reported as 118.3±5.7%, the “Brain NA (noradrenaline) level, percentages in relation to the controls” value (dopamine-β-hydroxylase [1]; [7]) is reported as 80.1±4.3% and the “Brain DA (dopamine) level, percentages” value (dopamine-β-hydroxylase [1]; [8]) is reported as 94.2±7.5%. The “Brain NA (noradrenaline) level, percentages in relation to the controls” value (dopamine-β-hydroxylase [1]; [8]) was 70.9±5.2%, the “Brain DA (dopamine) level, percentages” value (dopamine-β-hydroxylase [1]; [9]) was 91.0±12.7% and the “Brain NA (noradrenaline) level, percentages in relation to the controls” value (dopamine-β-hydroxylase [1]; [9]) was 81.6±7.3%. For the same compound, the “Adrenal gland AD (adrenaline) level, percentages in relation to the controls” value (dopamine-β-hydroxylase [2]; [7]) was 81.0±8.5%, the “Adrenal gland AD (adrenaline) level, percentages in relation to the controls” value (dopamine-β-hydroxylase [2]; [8]) was 91.7±4.3% and the “Adrenal gland AD (adrenaline) level, percentages in relation to the controls” value (dopamine-β-hydroxylase [2]; [9]) was 87.7±4.2%. The “Spleen NA (noradrenaline) level, percentages in relation to the controls” value (dopamine-β-hydroxylase [3]; [8]) was 114.5±28.2%, the “Spleen NA (noradrenaline) level, percentages in relation to the controls” value (dopamine-β-hydroxylase [3]; [9]) was 96.4±23.1% and the “Heart NA (noradrenaline) level, percentages in relation to the controls” value (dopamine-β-hydroxylase [4]; [7]) was 91.5±5.2%. For the same compound, the “Heart NA (noradrenaline) level, percentages in relation to the controls” value (dopamine-β-hydroxylase [4]; [8]) was 108.5±9.4%, the “Heart NA (noradrenaline) level, percentages in relation to the controls” value (dopamine-β-hydroxylase [4]; [9]) was 91.7±4.6% and the response vs control in vivo at 200 mg/kg ([6]; Rattus norvegicus, ip, 200 mg/kg, 8 hours, ± standard error, read-out: Brain 5-HIAA (5-hydroxy-indolylacetic acid) level, percentages in relation to the controls) was 126 ± 7.1%.
In the case of S=C(Nc1ccccc1)Nc1nccs1 [Compound U-14624, N-phenyl-N'-(2-thiazolyl)-thiourea, reference compound], the “Brain DA (dopamine) level, percentages” value (dopamine-β-hydroxylase [1]; [8]) is reported as 121%, the “Brain NA (noradrenaline) level, percentages in relation to the controls” value (dopamine-β-hydroxylase [1]; [8]) is reported as 31.6% and the “Adrenal gland AD (adrenaline) level, percentages in relation to the controls” value (dopamine-β-hydroxylase [2]; [8]) is reported as 72%. The “Spleen NA (noradrenaline) level, percentages in relation to the controls” value (dopamine-β-hydroxylase [3]; [8]) was 111%, the “Heart NA (noradrenaline) level, percentages in relation to the controls” value (dopamine-β-hydroxylase [4]; [8]) was 106% and the “Brain 5-HIAA (5-hydroxy-indolylacetic acid) level, percentages in relation to the controls” value [6, 10] was 175%. For the same compound, the “Brain SE (serotonine) level, percentages” value [6, 10] was 137%.
In the case of CCN(CC)C(=S)SSC(=S)N(CC)CC [DS, bis(diethylthiocarbamoyl)-disulfide, reference compound], the “Brain DA (dopamine) level, percentages” value (dopamine-β-hydroxylase [1]; [8]) is reported as 111%, the “Brain NA (noradrenaline) level, percentages in relation to the controls” value (dopamine-β-hydroxylase [1]; [8]) is reported as 22.5% and the “Brain DA (dopamine) level, percentages” value (dopamine-β-hydroxylase [1]; 400 mg/kg, 4 hours) is reported as 112%. The “Brain NA (noradrenaline) level, percentages in relation to the controls” value (dopamine-β-hydroxylase [1]; 400 mg/kg, 4 hours) was 24.1%, the “Adrenal gland AD (adrenaline) level, percentages in relation to the controls” value (dopamine-β-hydroxylase [2]; [8]) was 52% and the “Adrenal gland AD (adrenaline) level, percentages in relation to the controls” value (dopamine-β-hydroxylase [2]; 400 mg/kg, 4 hours) was 66%. The “Heart NA (noradrenaline) level, percentages in relation to the controls” value (dopamine-β-hydroxylase [4]; [8]) was 98%, the “Heart NA (noradrenaline) level, percentages in relation to the controls” value (dopamine-β-hydroxylase [4]; 400 mg/kg, 4 hours) was 102% and the “dopamine-β-hydroxylase inhibiting effects, in words” value (dopamine-β-hydroxylase [5]) was “strong dopamine-β-hydroxylase inhibiting effects”. For the same compound, the “Brain SE (serotonine) level, percentages” value [6, 10] was 122% and the “Brain SE (serotonine) level, percentages” value ([6]; i.p., 400 mg/kg, 4 hours) was 117%.
